Results on six compounds are retold here after US20240245680A1, “Methods of Treating Retinal Vasculopathies” (Unity Biotechnology, Inc., priority 2021, published 2024).

pIC50: −log10 of the molar value. Where a name gives a salt, the structure may show the parent alone.

In experiment [1] the target is T1, cKGA (kidney-type glutaminase) (Homo sapiens, UniProt O94925).
T1 sequence (O94925 221-533 limits assumed): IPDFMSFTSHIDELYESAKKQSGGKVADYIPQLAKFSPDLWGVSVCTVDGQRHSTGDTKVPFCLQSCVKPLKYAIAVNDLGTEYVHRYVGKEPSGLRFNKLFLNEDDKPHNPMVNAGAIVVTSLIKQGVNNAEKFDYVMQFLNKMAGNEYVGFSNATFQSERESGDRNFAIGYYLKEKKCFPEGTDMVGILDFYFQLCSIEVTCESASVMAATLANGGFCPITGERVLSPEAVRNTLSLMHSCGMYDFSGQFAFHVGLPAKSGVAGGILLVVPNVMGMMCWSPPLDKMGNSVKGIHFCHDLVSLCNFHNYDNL
The conditions noted are these: cited from earlier work.

Experiment [2] deals with T2, GLS2 (Homo sapiens, UniProt Q9UI32).
T2 sequence (Q9UI32 15-602): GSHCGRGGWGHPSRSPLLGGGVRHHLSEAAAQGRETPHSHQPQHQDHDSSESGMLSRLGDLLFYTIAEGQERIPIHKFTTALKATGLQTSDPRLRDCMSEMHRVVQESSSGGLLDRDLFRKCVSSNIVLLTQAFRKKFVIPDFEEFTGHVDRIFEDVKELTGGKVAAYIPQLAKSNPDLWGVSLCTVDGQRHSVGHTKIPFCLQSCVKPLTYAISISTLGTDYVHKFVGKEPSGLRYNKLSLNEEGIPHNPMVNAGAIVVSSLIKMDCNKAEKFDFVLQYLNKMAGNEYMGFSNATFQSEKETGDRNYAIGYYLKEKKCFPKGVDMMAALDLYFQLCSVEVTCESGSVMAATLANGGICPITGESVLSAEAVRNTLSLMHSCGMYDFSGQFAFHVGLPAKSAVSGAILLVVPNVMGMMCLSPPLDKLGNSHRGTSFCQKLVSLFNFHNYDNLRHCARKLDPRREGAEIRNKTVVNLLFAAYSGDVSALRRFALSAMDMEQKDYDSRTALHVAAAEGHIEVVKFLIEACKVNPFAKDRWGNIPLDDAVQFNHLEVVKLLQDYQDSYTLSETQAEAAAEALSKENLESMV
As to conditions: cited from earlier work.

Experiment [3] concerns irradiated, senescent HUVEC cells. The experiment in a line: Senolytic assay: irradiated senescent vs non-senescent HUVEC cells (CellTiter-Glo). Format: cell-based, human. As to conditions: 1:3 dilution series, dose-dependent (FIG. 3B, 4, 6A, 6B). The source says:
(§1) The ability of candidate agents to eliminate senescent retinal vascular endothelial cells or senescent retinal pigmented epithelial cells can be measured directly in the following assay. Human retinal microvascular endothelial cells (HRMEC) can be obtained from Neuromics® with the designation HEC09 or Cell Systems ACBRI 181. Human umbilical vein endothelial cells (HUVEC) can be obtained from Lonza® with the designation CC-2519. The cells can be maintained and propagated at <75% confluency in ENDO-Growth® Media (Neuromics®, Edina M N) at 3% O2, 10% CO2, and ˜95% humidity. Human retinal pigmented epithelial cells (RPE) can be obtained from Lonza® with the designation 194987. […]
(§2) On day 0, the irradiated HRMEC or RPE or HUVEC cells can be incubated with TrypLE trypsin-containing reagent (Thermofisher® Scientific, Waltham, Massachusetts) until the cells round up and begin to detach from the plate. Cells can then be dispersed, counted, and prepared in medium at a concentration of 100,000 cells per mL. […] On day 3, the quiescent healthy non-senescent HRMEC or RPE cells can be trypsinized from the culture flask as described above, and the cells can be dispersed, counted, and prepared in medium at a concentration of 80,000 cells per mL. […]
(In ATP-based viability assays light output follows the ATP content of the culture.)

The subject of experiment [4] is irradiated, senescent HRMEC cells. The experiment is described as follows: Senolytic assay: irradiated senescent vs non-senescent HRMEC cells (CellTiter-Glo). Format: cell-based, human. As to conditions: 1:3 dilution series, dose-dependent (FIG. 3A, FIG. 5).
Text: as §1, §2

Experiment [5] has as its target T3, GPX4 (Mus musculus, UniProt O70325).
T3 construct: from tissue; host or cells: adult murine retina
The experiment in a line: GPX4 competitive target engagement gel-shift assay, adult murine retinas. Format: in vivo. The conditions noted are these: integrated band density (FIGS. 8A-8C). As to the method: A gel shift assay was developed for the detection of either in vitro cell line or in vivo tissue target engagement (TE) of a GPX4 inhibitor. See FIG. 7 for a schematic of the assay.
In vitro labeling protocol: Two frozen murine retinas were added directly to 0.5 mL Precellys® tubes with ceramic beads and 200 μL of cold mPER with 1× Roche EDTA-free protease inhibitors and 5 mM TCEP. The retina tissue was homogenized using a single 15 s burst at 4500 RPM at 4° C. The tubes were spun at 5 k×g for 5 min @ 4° C. to remove the foam, then all liquid was transferred to 1.5 mL Eppendorfs®. The samples were spun @ 20 k×g for 10 min at 4° C., and the clarified lysates were transferred to clean tubes. 27.5 μL of each of the vehicle controls were combined into one tube to provide a labeling standard sample.
For the labeling control, 50 μL of sample was added to 1 μL of 5 mM RSL3 and another 50 μL of sample was added to DMSO as a control. The samples were mixed and incubated for 1 hr at room temperature (RT). […]
Blots were blocked with 5% Milk in TBST for 1 hr. […] Anti-rabbit-HRP was used at 1:5000 in 5% milk in TBST for ˜1 hr RT and signal was detected using the Western Pico® ECL reagent. […] The integrated density of bands for +/−streptavidin was quantitated using ImageJ® (National Institutes of Health).

In experiment [6] the target is T4, transglutaminase 2 (TGase 2) (Homo sapiens, UniProt P21980).
T4 sequence (P21980 1-687): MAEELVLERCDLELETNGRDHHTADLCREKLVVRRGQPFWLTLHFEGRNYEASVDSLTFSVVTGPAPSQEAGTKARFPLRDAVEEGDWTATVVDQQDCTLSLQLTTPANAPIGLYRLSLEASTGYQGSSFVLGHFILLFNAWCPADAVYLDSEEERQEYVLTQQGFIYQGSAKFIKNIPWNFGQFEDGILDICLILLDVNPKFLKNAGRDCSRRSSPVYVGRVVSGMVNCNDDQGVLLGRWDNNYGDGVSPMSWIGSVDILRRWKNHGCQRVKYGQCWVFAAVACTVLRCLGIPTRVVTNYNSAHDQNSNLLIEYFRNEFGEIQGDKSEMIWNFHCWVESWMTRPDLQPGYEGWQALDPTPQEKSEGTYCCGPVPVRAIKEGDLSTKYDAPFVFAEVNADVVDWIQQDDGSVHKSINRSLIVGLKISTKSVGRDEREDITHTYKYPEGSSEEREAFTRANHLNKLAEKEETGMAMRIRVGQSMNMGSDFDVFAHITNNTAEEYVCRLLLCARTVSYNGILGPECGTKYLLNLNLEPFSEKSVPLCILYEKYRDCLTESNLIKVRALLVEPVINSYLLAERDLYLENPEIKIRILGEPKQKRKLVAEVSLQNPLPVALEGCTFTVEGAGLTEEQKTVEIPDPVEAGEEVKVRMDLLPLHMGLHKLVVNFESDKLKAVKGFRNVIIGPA
As to conditions: under a modified assay condition; cited from earlier work.

T3 sequence (O70325 whole entry): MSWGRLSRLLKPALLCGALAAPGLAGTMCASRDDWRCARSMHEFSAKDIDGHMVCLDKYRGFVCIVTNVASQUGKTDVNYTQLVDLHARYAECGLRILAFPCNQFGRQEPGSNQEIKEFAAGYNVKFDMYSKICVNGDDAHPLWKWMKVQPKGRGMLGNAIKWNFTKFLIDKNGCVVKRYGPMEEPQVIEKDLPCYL

With `[N-]=[N+]=CC(=O)CC[C@H](N)C(=O)O` [6-Diazo-5-oxo-L-norleucine], the pIC50 in experiment [1] is about 3.00.

With `CNC(=O)c1cn(C[C@H](F)CCc2ccc(NC(=O)Cc3cc(OC4CC(F)(F)C4)cc(C)n3)nn2)nn1` [IPN-60090 dihydrochloride], the “activity against GLS-2” value in experiment [2] is on record as “no activity observed”.

For the compound `O=C(/C(C[N+](=O)[O-])=N/O)N1CCN(C(c2ccc(Cl)cc2)c2ccc(Cl)cc2)CC1` [JKE-1674, (E)-1-(4-(bis(4-chlorophenyl)methyl)piperazin-1-yl)-2-(hydroxyimino)-3-nitropropan-1-one], the “selective killing of senescent HUVEC cells as compared to non-senescent HUVECs” value in experiment [3] is recorded as “selectively senolytic”.

Take `Cc1onc(C(=O)N2CCN(C(c3ccc(Cl)cc3)c3ccc(Cl)cc3)CC2)c1[N+](=O)[O-]` [ML210]: the “selective killing of senescent HRMEC cells as compared to non-senescent HRMECs” value in experiment [4] is recorded as “selectively senolytic”.

Consider `COC(=O)c1ccc([C@H]2c3[nH]c4ccccc4c3C[C@H](C(=O)OC)N2C(=O)CCl)cc1` [RSL3, (1S,3R)-methyl 2-(2-chloroacetyl)-1-(4-(methoxycarbonyl)phenyl)-2,3,4,9-tetrahydro-1H-pyrido[3,4-b]indole-3-carboxylate], for which the “GPX4 target engagement (TE)” value in experiment [5] is recorded as “dose-dependent GPX4 TE”. Also, the “selective killing of senescent HUVEC cells as compared to non-senescent HUVECs” value in experiment [3] is recorded as “selectively senolytic”. For the same compound, the “selective killing of senescent HRMEC cells as compared to non-senescent HRMECs” value in experiment [4] is listed as “selectively senolytic”.

Turning to GK921, the pIC50 in experiment [6] is 5.05.

A word on the pIC50: it is −log10 of the IC50, conventionally taken in molar units.
